In patent US20260207560A1, “PLURALITY OF GRANULES” (priority 2022, published 2026):
Where “and” joins values, the source holds several entries; their conditions need not be identical. Identical values can stand only once.

Key:
[1] = Forced degradation study of the active substance (HPLC assay, observations)
[2] = Compatibility of active ingredient with HPMC and gelatin capsule shells (assay, related substances); assay type: physicochemical; settings: for Assay (%): single vials
Experimental: Binary mixtures of the active ingredient with the capsules shells were made as follows: • An active ingredient doping solution (active ingredient dissolved in ethanol) was made ([…]). A 100 μL aliquot of this doping was used to ‘spike’ the 10 vials of each capsule shell type as described in Table 5. The nominal quantity of active ingredient per vial was therefore 50 μg. • No doping solution was added to the three control vials of the excipient. • The active vials were left open overnight to evaporate all the ethanol, before closing the vials. • Both the active and placebo control vials were placed on stability for up to 28 days at 25° C. and 50° C.

[3] = Gelatin capsule shell, 50° C., 28 days
[4] = HPMC capsule shell, 25° C., 14 days
[5] = HPMC capsule shell, 25° C., 14 days, listed as active ingredient
[6] = HPMC capsule shell, 25° C., 28 days
[7] = HPMC capsule shell, 25° C., 28 days, listed as active ingredient

SMILES: CCS(=O)(=O)Nc1ccc2c(c1)nc(C(C)(C)C)n2CC1CCC(F)(F)CC1 [Compound I, N-(2-(tert-butyl)-1-((4,4-difluorocyclohexyl)methyl)-1H-benzimidazol-5-yl)ethanesulfonamide]
- Sample observations ([1]; Test 1 Control (solution, ambient temperature)): Clear colourless solution. No change over study period.
- Assay of active substance ([1]; Test 1 solution control, 0 days): 99.40 area %
- Assay of active substance ([1]; Test 1 solution control, 3 days): 99.42 area %
- Assay of active substance ([1]; Test 1 solution control, 7 days): 99.30 area %
- Assay of active substance ([1]; Test 1 solution control, 11 days): 99.39 area %
- Sample observations ([1]; Test 2 Solid state 100° C.): Off-white solid turning to very faint orange solid over study
- Assay of active substance ([1]; Test 2 solid state at 100° C., 3 days): 99.43 area %
- Assay of active substance ([1]; Test 2 solid state at 100° C., 7 days): 99.40 area %
- Sample observations ([1]; Test 3 Acid 60° C.): Clear colourless solution. No change over study period.
- Sample observations ([1]; Test 3 Acid (1M, ambient temperature)): Clear colourless solution. No change over study period.
- Assay of active substance ([1]; Test 3 acid (1M) ambient temperature, 3 days): 99.40 area %
- Assay of active substance ([1]; Test 3 acid (1M) ambient temperature, 7 days): 99.41 area %
- Assay of active substance ([1]; Test 3 acid (1M) at 60° C. until day 7, 80° C. until day 11, 11 days): 98.87 area %
- Assay of active substance ([1]; Test 3 acid (1M) at 60° C., 3 days): 99.37 area %
- Assay of active substance ([1]; Test 3 acid (1M) at 60° C., 7 days): 99.35 area %
- Sample observations ([1]; Test 4 Base 40° C.): Clear colourless solution. No change over study period.
- Sample observations ([1]; Test 4 Base (0.5M, ambient temperature)): Clear colourless solution. No change over study period.
- Assay of active substance ([1]; Test 4 base (0.5M) ambient temperature, 3 days): 99.40 area %
- Assay of active substance ([1]; Test 4 base (0.5M) ambient temperature, 7 days): 99.37 area %
- Assay of active substance ([1]; Test 4 base (0.5M) at 60° C. until day 7, 80° C. until day 11, 11 days): 99.16 area %
- Assay of active substance ([1]; Test 4 base (0.5M) at 60° C., 3 days): 99.34 area %
- Assay of active substance ([1]; Test 4 base (0.5M) at 60° C., 7 days): 99.32 area %
- Sample observations ([1]; Test 5 Heat 60° C. (solution)): Clear colourless solution. No change over study period
- Assay of active substance ([1]; Test 5 solution at 60° C. until day 7, 80° C. until day 11, 11 days): 98.00 area %
- Assay of active substance ([1]; Test 5 solution at 60° C., 3 days): 99.13 area %
- Assay of active substance ([1]; Test 5 solution at 60° C., 7 days): 99.34 area %
- Sample observations ([1]; Test 6 Peroxide (1.5%)): Clear colourless solution. No change over study period
- Assay of active substance ([1]; Test 6 peroxide (1.5%), 3 days): 98.50 area %
- Assay of active substance ([1]; Test 6 peroxide (1.5%), 7 days): 97.75 area %
- Assay of active substance ([1]; Test 6 peroxide (1.5%), 13 days): 96.58 area %
- Sample observations ([1]; Test 7 Photostability (Solution Control)): Clear colourless solution. No change over study period.
- Assay of active substance ([1]; Test 7 photocontrol solution): 99.40 area %
- Sample observations ([1]; Test 8 Photostability (Solution Treated)): Clear colourless solution turning to a clear yellow solution
- Assay of active substance ([1]; Test 8 photo treated solution, 1.92 million lux hours, near-UV 374.6 Whm^−2): 74.53 area %
- Sample observations ([1]; Test 9 Photostability (Solid Control)): Off white solid. No change over study period.
- Assay of active substance ([1]; Test 9 photocontrol solid): 99.40 area %
- Sample observations ([1]; Test 10 Photostability (Solid Treated)): Off-white solid turning to very faint orange solid over study
- Assay of active substance ([1]; Test 10 phototreated solid, 1.92 million lux hours, near-UV 374.6 Whm^−2): 99.31 area %
- Forced degradation outcome (summary) ([1]; peroxide, 1M acid, 0.5M base and solution when extended to 80° C.): slight degradation
- Forced degradation outcome (summary) ([1]; solution at room temperature, solid at 100° C., 1M acid and 0.5M base at room temperature and 60° C., solution at 60° C., photostability as a solid): stable to degradation
- Forced degradation outcome (summary) ([1]; solution under photostability conditions): Major degradation
- Assay (%), mean ([2]; Gelatin capsule shell, 25° C., 14 days): 98.1%
- Assay (%) ([2]; Gelatin capsule shell, 25° C., 14 days, listed as active ingredient): 98.9% and 97.4%
- Assay (%), mean ([2]; Gelatin capsule shell, 25° C., 28 days): 99.1%
- Assay (%) ([2]; Gelatin capsule shell, 25° C., 28 days, listed as active ingredient): 98.8% and 99.4%
- Assay (%), mean ([2]; Gelatin capsule shell, 50° C., 14 days): 99.3%
- Assay (%) ([2]; Gelatin capsule shell, 50° C., 14 days, listed as active ingredient): 99.3% and 99.4%
- Assay (%), mean [2, 3]: 89.3%
- Assay (%) [2, 3]: 99.4%
- Assay (%), mean ([2]; Gelatin capsule shell, initial): 99.6%
- Assay (%) ([2]; Gelatin capsule shell, initial, listed as active ingredient): 99.0% and 100.2%
- Assay (%), mean [2, 4]: 95.8%
- Related substance RRT 1.04 [2, 4]: 0.08%
- Related substance RRT 1.10 [2, 4]: 0.09%
- Related substance RRT 0.92 [2, 5]: 0.08% and 0.07%
- Related substance RRT 0.98 [2, 5]: 0.31% and 0.32%
- Related substance RRT 1.35 [2, 5]: 0.13% and 0.12%
- Related substance RRT 1.36 [2, 5]: 0.13% and 0.12%
- Related substances total [2, 5]: 0.82% and 0.80%
- Assay (%) [2, 4]: 98.9%
- Assay (%), mean [2, 6]: 99.1%
- Related substance RRT 0.92 [2, 6]: 0.08%
- Related substance RRT 1.04 [2, 6]: 0.07%
- Related substances total [2, 6]: 0.79%
- Related substance RRT 0.98 [2, 7]: 0.3% and 0.31%
- Related substance RRT 1.10 [2, 7]: 0.09% and 0.08%
- Related substance RRT 1.35 [2, 7]: 0.12% and 0.13%
- Related substance RRT 1.36 [2, 7]: 0.12% and 0.13%
